Reference: ChEMBL document CHEMBL1144881, “3,6-dibromocarbazole piperazine derivatives of 2-propanol as first inhibitors of cytochrome c release via Bax channel modulation” (J Med Chem, 2003)

How the values were obtained:
HeLa [1] = assay: In vitro inhibition of cytochrome C release in isolated mitochondria by the compound was determined; type: functional, Homo sapiens; parameters: concentration or dose not given beside the values
[2] = target: Apoptosis regulator BAX (Homo sapiens) (UniProt Q07812); assay: cells
HeLa [3] = assay: cells; type: functional; conditions: Homo sapiens
Description: In vitro inhibition of cytochrome C release in isolated mitochondria by the compound at a concentration of 10 uM was determined

HeLa [4] = assay: cells; type: functional; conditions: Homo sapiens; remark: listed apart in the source
Description: In vitro inhibition of cytochrome C release in isolated mitochondria by the compound at a concentration of 20 uM was determined

HeLa [5] = assay: cells; type: functional; conditions: Homo sapiens; remark: listed apart in the source

SMILES	IC50 [2]	Inhibition (HeLa [1])	inhibition at 10 µM (HeLa [3])	inhibition at 20 µM (HeLa [4])	inhibition at 5 µM (HeLa [5])
FC(F)(CN1CCNCC1)Cn1c2ccc(Br)cc2c2cc(Br)ccc21	680 nM		83%	96%	61%
O=C(CN1CCNCC1)Cn1c2ccc(Br)cc2c2cc(Br)ccc21	290 nM	71%			
OC(CN1CCN(CCN2CCOCC2)CC1)Cn1c2ccc(Br)cc2c2cc(Br)ccc21 (stereo not given)	470 nM		74%	95%	21%
NC(CN1CCNCC1)Cn1c2ccc(Br)cc2c2cc(Br)ccc21 (stereo not given)	960 nM	71%			
OC(CN1CCNCC1)Cn1c2ccc(Br)cc2c2cc(Br)ccc21 (stereo not given)			94%	99%	77%
COc1ccc(CN2CCN(CC(O)Cn3c4ccc(Br)cc4c4cc(Br)ccc43)CC2)cc1 (stereo not given)	370 nM		82%	99%	61%

More lines, main results first:

IC50 [2]	SMILES	Inhibition (HeLa [1])	inhibition at 10 µM (HeLa [3])	inhibition at 20 µM (HeLa [4])	inhibition at 5 µM (HeLa [5])
480 nM	OC(CN1CCN(Cc2ccc(F)cc2)CC1)Cn1c2ccc(Br)cc2c2cc(Br)ccc21 (stereo not given)	65%			
2380 nM	OC(CN1CCN(c2ccc(F)cc2)CC1)Cn1c2ccc(Br)cc2c2cc(Br)ccc21 (stereo not given)	15%			
1270 nM	O=C(Nc1ccc(F)cc1)N1CCN(CC(O)Cn2c3ccc(Br)cc3c3cc(Br)ccc32)CC1 (stereo not given)	15%			
